Residues, ends and D or L forms follow the SMILES beside them. *: point of attachment. X1 = O=C(COC(=O)*)c1ccc(O)cc1
Columns and labels:
[1] = tested on: A2058 human melanoma cell line; assay: Fluorescence microscopy of cellular arrangement in hydrogels (acridine orange); format: cell-based; details: A2058 cells, 96 h, acridine orange 0.1 mM, 10× magnification, Z-stacks
Description: Peptides were dissolved in PBS (1×) at a 1.2 mM concentration. 50–50 μL of the resulting stock solution was added to a 96-well, optical bottom plate. The plate was illuminated with an UV lamp (Sylvania 254 nm, 8 W) for 20 min, followed by the distribution of 50–50 μL of RPMI-1640 medium [supplemented with 10% (v/v %) FBS and 1% L-glutamine, 1% penicillin/streptomycin] into the wells. Then, the plate was incubated for 1 h. For the 3D microscopic imaging of the hydrogels, cells were treated with acridine orange (at 0.1 mM) and incubated for 30 min. Fluorescence measurements were carried out on a Zeiss Celldiscoverer 7 (Zeiss, Jena, Germany) using 10× magnification (Plan-Apochromat λ/0.35 NA objective with 2× tube lens) and acquisition of Z-stacks with 10 μm intervals between individual planes. The images were processed by using ZEN Blue 2.6 software (Carl Zeiss AG, Jena, Germany). Figure 4 (A) Viability of the A2058 human melanoma cell line in native EAK-16-II and caged peptide hydrogels as well as in monolayer (2D) after 96 h. Cell viability was measured using CellTiterGlo assay (Promega, Madison, WI, USA) and normalized to 2D growing cells (control cells) (normalized live cells = 100%). Data are presented as mean values ± standard deviation (SD) from three independent experiments. (B) 3D representation of cellular arrangements in both types of hydrogels. […]

[2] = cited from earlier work
Description: These turbidity measurements were conducted at a 300 μM concentration, which was also used for in vitro experiments.

[3] = Optical transmittance (turbidity) in PBS; format: physicochemical; details: 300 μM in PBS (pH 7.4, 1×), 25 °C, 532 nm, after the starting point
Description: Transmittance was measured using an UV–vis spectrophotometer (Jasco V-650, Jasco, Cremella, Italy) in phosphate-buffered saline (PBS, pH 7.4, 1×) buffer.  Figure 1 Optical transmittance of native (nonprotected) EAK16-II peptide and caged-EAK16-II (300 μM) in PBS, 25 °C, 532 nm, 8 h. […] These turbidity measurements were conducted at a 300 μM concentration, which was also used for in vitro experiments.

[4] = Solubility and handling (observation during purification, spectroscopic measurement); format: physicochemical; details: aqueous / PBS, qualitative
Description: To support this change in “behavior” of the caged derivative, spectroscopic (transmittance) measurements were conducted, which confirmed the suppressed aggregation compared to the nonprotected peptide (Figure 1).
Therefore, its purification and characterization could be carried out in the usual way as for peptides (e.g., RP-HPLC and LC–MS).

[5] = tested on: A2058 human melanoma cell line; assay: CellTiterGlo viability assay, cells in 2D monolayer or in peptide hydrogel (3D); format: cell-based; details: HPAA 1 mM, 96 h, normalized to 2D control, n = 3
Description: Human melanoma cell line A2058 was obtained from the European Collection of Authenticated Cell Cultures (ECACC, Salisbury, UK) and was cultured in RPMI 1640 medium supplemented with 10% (v/v %) fetal bovine serum (Biosera Europe, Nuaillé, France), 1% L-glutamine, and 1% penicillin/streptomycin (Gibco, Invitrogen Corporation, New York, USA). Cells were propagated in standard cell culture conditions (37 °C, 5% CO2).
Peptides were dissolved in PBS (1×) at a 1.2 mM concentration. 50–50 μL of the resulting stock solution was added to a 96-well, optical bottom plate. […]
Viability tests were performed using CellTiterGlo (Promega, Madison, WI, USA) reagent to determine the quantity of viable cells in both 2D setups and in hydrogels. […] The luminescence signal was measured by a Fluoroskan FL microplate fluorometer and luminometer (Thermo Scientific, Waltham, MA, USA). […] All quantitative data are presented as the mean ± standard deviation (SD). The results were evaluated with MS Excel and OriginPro 2020 software (OriginLab Corporation, Northampton, MA, USA).
Results were evaluated using MS Excel and OriginPro 2020 software (OriginLab Corp., Northampton, MA, USA). […] Data were statistically analyzed using one-way analysis of variance followed by Tukey’s posthoc test. […]

Molecule: Ac-AEAEAKAKAEAEAKAK-NH2 [EAK16-II]
- Cellular arrangement (cellular aggregate formation) in hydrogel [1]: distinct cellular aggregates
- Critical aggregating concentration [2]: 0.1 mg/mL
- Time to "microgelatinization" (sedimentation of peptide aggregates, increase in transmittance) [3]: Around 10 min

Molecule: CC(=O)N[C@@H](C)C(=O)N[C@@H](CCC(=O)O)C(=O)N[C@@H](C)C(=O)N[C@@H](CCC(=O)O)C(=O)N[C@@H](C)C(=O)N[C@@H](CCCCNC(=O)OCC(=O)c1ccc(O)cc1)C(=O)N[C@@H](C)C(=O)N[C@@H](CCCCN)C(=O)N[C@@H](C)C(=O)N[C@@H](CCC(=O)O)C(=O)N[C@@H](C)C(=O)N[C@@H](CCC(=O)O)C(=O)N[C@@H](C)C(=O)N[C@@H](CCCCNC(=O)OCC(=O)c1ccc(O)cc1)C(=O)N[C@@H](C)C(=O)N[C@@H](CCCCN)C(N)=O [caged-EAK16-II] (Ac-AEAEAK(X1)AKAEAEAK(X1)AK-NH2)
- Solubility [4]: good solubility

Molecule: O=C(O)Cc1ccc(O)cc1 [HPAA, p-hydroxyphenylacetic acid]
- In vitro cytotoxicity, monolayer (2D) ([5]; A2058 cells in 2D (plastic surface)): did not have any long-term toxic effect
- In vitro cytotoxicity, in EAK16-II hydrogel (3D) ([5]; A2058 cells in EAK16-II (300 μM) hydrogel): did not have any long-term toxic effect
